Results as given in patent US20230150986A1, “ANTAGONISTS OF THE MUSCARINIC ACETYLCHOLINE RECEPTOR M4” (Vanderbilt University, priority 2019, published 2023).

Key:
cytochrome P450 2C9 = target: T1, cytochrome P450 2C9 (Homo sapiens, UniProt P11712); experiment: Cytochrome P450 cocktail inhibition assay, 2C9 (diclofenac); assay type: in vitro ADME; details: human liver microsomes 0.1 mg/mL; read-out: CYP Inhibition (2C9)
T1 construct: human liver microsomes (HLM; 0.1 mg/mL); from tissue; host or cells: human liver microsomes
Protocol: (§1) Solutions of substrates for cytochrome P450 enzymes (1A2: Phenacetin, 10 μM; 2C9: Diclofenac, 5 μM; 2D6: Dextromethorphan, 5 μM; 3A4: Midazolam, 2 μM; as a mixture), test compound (VU6028418; multiple concentrations), and the positive control for pan-P450 inhibition (miconazole; multiple concentrations) were prepared. A reaction mixture of assay buffer (100 mM Kpi at pH 7.4), human liver microsomes (HLM; 0.1 mg/mL), and the substrate mixture were aliquoted into a 96-deepwell plate. The test compound and control were then added to the plate such that the final concentration of test compound ranged from 0.1-30 μM (two replicates per concentration). The assay plate was vortexed (briefly) and pre-incubated at 37° C. in an orbital shaker for 15 minutes. The reaction was initiated by addition of NADPH (1 mM, final concentration) and continued for 8 min before it was quenched by acetonitrile (2× volume) containing an LCMS internal standard (carbamazepine, 50 nM). The plate was then centrifuged (4000 rcf, 4° C., 10 min), and the resulting supernatant was diluted with water (1× volume) for LC-MS/MS. Assay samples were analyzed via electrospray ionization on an AB Sciex API-4000 (Foster City, Calif.) triple-quadrupole mass spectrometer coupled to Agilent Technologies 1290 Infinity series pumps (Santa Clara, Calif.), and a Leap Technologies CTC PAL auto -sampler (Carrboro, NC). Analytes were separated by gradient elution on a Phenomenex Kinetex (C18 2.1×50 mm 5 μm) column (Torrance, Calif.) thermostated at 40° C. The HPLC mobile phase A was 0.1% formic acid in water (pH unadjusted), and the mobile phase B was 0.1% formic acid in acetonitrile (pH unadjusted). […] The total run time was 2.5 min and the HPLC flow rate was 0.5 mL/min. The source temperature was set at 500° C. and mass spectral analyses were performed using multiple reaction monitoring (MRM) with mass transitions specific to each substrate's metabolite utilizing a Turbo-Ionspray® source in positive ionization mode (5.0 kV spray voltage). The test compound and control IC50 values for each enzyme were obtained by quantitating the inhibition of metabolite formation for each substrate. A 0 μM test compound (or control) conditions represented 100% enzymatic activity, and the effect of increasing test compound concentrations on enzymatic activity was then calculated from the % of control activity. Inhibition curves were fitted using XLfit 5.2.2 (four-parameter logistic model, equation 201) in order to calculate the concentration that produced half-maximal inhibition (IC50) of each enzyme.

P-gp = target: T2, P-gp (Homo sapiens, UniProt P08183); experiment: P-gp efflux in MDR1-MDCK cell monolayers; assay type: in vitro ADME; details: dog, pH 7.4, MDCK-MDR1, 5 μM
T2 construct: expressed in transfected cells; host or cells: MDR1-MDCK
Protocol: MDR1-MDCK cell monolayers were grown to confluence on collagen-coated, microporous membranes in 12-well assay plates. The permeability assay buffer was Hanks' balanced salt solution containing 10 mM HEPES and 15 mM glucose at a pH of 7.4. The buffer in the receiver chamber also contained 1% bovine serum albumin. The dosing solution concentration was 5 μM of test article in the assay buffer. Cell monolayers were dosed on the apical side (A- to -B) or basolateral side (B- to -A) and incubated at 37° C. with 5% CO2 in a humidified incubator. Samples were taken from the donor and receiver chambers at 120 minutes Each determination was performed in duplicate. The flux of lucifer yellow was also measured post-experimentally for each monolayer to ensure no damage was inflicted to the cell monolayers during the flux period. All samples were assayed by LC-MS/MS using electrospray ionization.

cytochrome P450 2D6 = target: T3, cytochrome P450 2D6 (Homo sapiens, UniProt P10635); experiment: Cytochrome P450 cocktail inhibition assay, 2D6 (dextromethorphan); assay type: in vitro ADME; details: human liver microsomes 0.1 mg/mL; read-out: CYP Inhibition (2D6)
T3 construct: human liver microsomes (HLM; 0.1 mg/mL); from tissue; host or cells: human liver microsomes
Protocol: as §1

Sprague-Dawley rats = experiment: Haloperidol-induced catalepsy assay; assay type: in vivo, rat; details: for reversal of catalepsy: haloperidol 1.5 mg/kg i.p.
Protocol: Drugs. Compound 1 was weighed and 2% Tween 80/0.5% methylcellulose were placed on top of the compound in serum bottles. This was sonicated for about an hour. All doses were administrated at 10 mL/kg p.o. The final solution is a suspension. Haloperidol was dissolved in 1 mL of 8% lactic acid and taken to 50 mL with sterile water. Haloperidol was dosed at 1 mL/kg i.p.
1. Haloperidol 1.5 mg/kg, i.p.
2. Compound 1, 0.3-3 mg/kg, p.o.
3. Vehicle (2% tween 80/0.5% MC), p.o.
Animals. Male Sprague-Dawley rats weighing between 290-326 grams (Envigo, Inc., Indianapolis, Ind.) were used. They were housed in the animal care facility certified by the American Association for the Accreditation of Laboratory Animal Care (AAALAC) under a 12-hour light/dark cycle (lights on: 7 a.m.; lights off: 7 p.m.) and had free access to food and water. The experimental protocols performed during the light cycle were approved by the Institutional Animals Care and Use Committee of Vanderbilt University and conformed to the guidelines established by the National Research Council Guide for the Care and Use of Laboratory Animals.
Haloperidol-induced catalepsy. Adult male Sprague-Dawley rats are injected with 1.5 mg/kg of haloperidol i.p. Thirty minutes later, the animals are administered 0.3-3 mg/kg of Compound 1 or vehicle. Cataleptic behavior is determined 60 minutes later by placing the forelimbs on a bar raised 6 cm above the table and recording the amount of time it takes for the rat to withdraw the forelimbs with a cutoff of 60 seconds. Data are expressed as mean latency to withdraw ±SEM or percent inhibition of catalepsy ±SEM.
Data Analysis. The data for these dose-response studies were analyzed by a one way analysis of variance. If there was a main effect of dose, then each dose group was compared with each of the other treated groups using GraphPad Prism (version 4.03, GraphPad, La Jolla, Calif.).

T1 sequence (P11712 whole entry): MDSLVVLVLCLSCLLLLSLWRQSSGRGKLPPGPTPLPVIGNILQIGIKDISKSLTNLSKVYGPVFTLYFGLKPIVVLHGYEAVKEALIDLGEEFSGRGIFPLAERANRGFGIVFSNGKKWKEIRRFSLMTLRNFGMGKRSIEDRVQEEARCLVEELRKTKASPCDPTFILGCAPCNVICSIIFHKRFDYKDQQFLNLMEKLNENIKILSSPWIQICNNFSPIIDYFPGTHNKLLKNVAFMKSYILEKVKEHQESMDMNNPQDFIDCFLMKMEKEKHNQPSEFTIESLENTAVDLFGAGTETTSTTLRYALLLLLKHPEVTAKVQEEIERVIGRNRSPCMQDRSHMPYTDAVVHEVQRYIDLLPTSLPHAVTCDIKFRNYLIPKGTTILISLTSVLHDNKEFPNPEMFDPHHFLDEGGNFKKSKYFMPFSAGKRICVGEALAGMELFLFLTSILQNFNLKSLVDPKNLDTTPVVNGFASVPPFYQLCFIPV
T3 sequence (P10635 whole entry): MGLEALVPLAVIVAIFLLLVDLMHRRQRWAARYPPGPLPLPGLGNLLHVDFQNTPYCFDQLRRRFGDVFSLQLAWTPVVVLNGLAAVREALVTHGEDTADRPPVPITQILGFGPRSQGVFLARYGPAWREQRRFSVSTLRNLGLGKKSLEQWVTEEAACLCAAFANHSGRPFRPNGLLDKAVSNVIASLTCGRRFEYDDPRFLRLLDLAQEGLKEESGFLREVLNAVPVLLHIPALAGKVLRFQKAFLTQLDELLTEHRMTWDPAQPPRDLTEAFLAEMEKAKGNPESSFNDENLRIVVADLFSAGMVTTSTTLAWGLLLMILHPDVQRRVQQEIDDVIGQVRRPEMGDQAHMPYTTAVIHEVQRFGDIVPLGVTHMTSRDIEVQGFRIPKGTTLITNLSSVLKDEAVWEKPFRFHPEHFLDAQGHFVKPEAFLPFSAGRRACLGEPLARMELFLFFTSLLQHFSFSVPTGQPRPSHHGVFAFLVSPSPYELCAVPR
T2 sequence (P08183 whole entry): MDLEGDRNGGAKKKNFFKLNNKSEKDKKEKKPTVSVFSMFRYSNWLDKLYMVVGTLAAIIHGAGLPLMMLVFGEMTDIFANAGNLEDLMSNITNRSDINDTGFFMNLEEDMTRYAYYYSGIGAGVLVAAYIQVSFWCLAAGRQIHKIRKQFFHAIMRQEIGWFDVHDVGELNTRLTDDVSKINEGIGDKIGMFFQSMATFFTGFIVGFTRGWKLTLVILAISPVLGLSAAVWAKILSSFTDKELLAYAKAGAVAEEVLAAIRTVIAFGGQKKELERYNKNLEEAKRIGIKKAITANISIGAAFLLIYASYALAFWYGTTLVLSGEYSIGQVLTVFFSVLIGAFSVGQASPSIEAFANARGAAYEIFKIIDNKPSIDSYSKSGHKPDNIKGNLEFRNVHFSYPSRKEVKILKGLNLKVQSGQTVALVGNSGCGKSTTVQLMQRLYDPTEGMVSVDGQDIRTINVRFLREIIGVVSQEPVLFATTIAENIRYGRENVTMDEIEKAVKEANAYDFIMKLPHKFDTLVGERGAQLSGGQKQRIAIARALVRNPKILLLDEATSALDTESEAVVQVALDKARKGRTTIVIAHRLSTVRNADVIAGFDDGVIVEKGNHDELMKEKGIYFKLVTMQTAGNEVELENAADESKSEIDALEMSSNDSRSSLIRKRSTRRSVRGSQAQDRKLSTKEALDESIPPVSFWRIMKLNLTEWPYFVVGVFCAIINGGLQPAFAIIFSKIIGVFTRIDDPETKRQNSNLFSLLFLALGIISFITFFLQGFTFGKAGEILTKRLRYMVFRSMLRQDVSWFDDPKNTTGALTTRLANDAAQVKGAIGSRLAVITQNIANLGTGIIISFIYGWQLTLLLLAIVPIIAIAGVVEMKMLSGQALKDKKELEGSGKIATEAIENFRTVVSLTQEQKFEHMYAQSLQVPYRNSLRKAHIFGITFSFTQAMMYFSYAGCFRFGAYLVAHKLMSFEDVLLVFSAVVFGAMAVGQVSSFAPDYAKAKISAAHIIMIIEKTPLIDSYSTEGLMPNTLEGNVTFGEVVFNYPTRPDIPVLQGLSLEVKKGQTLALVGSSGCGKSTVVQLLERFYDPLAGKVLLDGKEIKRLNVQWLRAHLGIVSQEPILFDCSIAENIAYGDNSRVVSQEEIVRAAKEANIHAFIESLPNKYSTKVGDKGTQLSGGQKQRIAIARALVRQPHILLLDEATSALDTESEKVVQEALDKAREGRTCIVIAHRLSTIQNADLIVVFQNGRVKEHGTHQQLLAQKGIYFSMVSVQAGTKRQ

| IC50 (cytochrome P450 2C9) [µM] | efflux ratio at 120 min, 5 μM (P-gp) | IC50 (cytochrome P450 2D6) [µM] | Structure (SMILES) | reversal of cataleptic behavior (Sprague-Dawley rats; 0.3 mg/kg) | reversal of catalepsy (Sprague-Dawley rats; 1 mg/kg p.o., rat, p<0.01) [%] | reversal of catalepsy (Sprague-Dawley rats; 3 mg/kg p.o., rat, p<0.001) [%] | latency to withdraw (forelimbs) compared to vehicle treated control animals (Sprague-Dawley rats; 0.3-3 mg/kg p.o., rat, F3,36=8.7 p<0.001) |
| --- | --- | --- | --- | --- | --- | --- | --- |
| > 30 | 2.6 | > 30 | Fc1cc(F)c(F)c(-c2ccc(N[C@H]3C[C@@H]4CN(Cc5ccccn5)C[C@@H]4C3)nn2)c1 [Compound 2, (3aR,5s,6aS)-2-(pyridin-2-ylmethyl)-N-(6-(2,3,5-trifluorophenyl)pyridazin-3-yl)octahydrocyclopenta[c]pyrrol-5-amine] |  |  |  |  |
| 9.8 | 8.9 | > 30 | Fc1cc(F)c(F)c(-c2ccc(N[C@H]3C[C@@H]4CN(CC5CCOCC5)C[C@@H]4C3)nn2)c1 [Compound 1, (3aR,5s,6aS)-2-((tetrahydro-2H-pyran-4-yl)methyl)-N-(6-(2,3,5-trifluorophenyl)pyridazin-3-yl)octahydrocyclopenta[c]pyrrol-5-amine] | 26.2 0/0 | 50.9 | 65.2 | significantly reduced |
